Assay results: patent publication US9469650B2, “Melampomagnolide B derivatives” (BOARD OF TRUSTEES OF THE UNIVERSITY OF ARKANSAS, priority 2013, dated 2016)
Like-named read-outs stand apart in the source and are kept apart here.

Assays:
[1] = test system: NCI-H226; test: panel of 60 human tumor cell lines, growth inhibition (Non-Small Cell Lung Cancer); settings: NCI-H226
[2] = test system: CAKI-1; test: panel of 60 human tumor cell lines, growth inhibition (Renal Cancer); settings: CAKI-1
[3] = test system: DU-145; test: panel of 60 human tumor cell lines, growth inhibition (Prostate Cancer); settings: DU-145
[4] = test system: HL-60(TB)
[5] = test system: RXF 393; test: panel of 60 human tumor cell lines, growth inhibition (Renal Cancer); settings: RXF 393
[6] = test system: CCRF-CEM; test: panel of 60 human tumor cell lines, growth inhibition (Leukemia)
[7] = test system: HOP-62; test: panel of 60 human tumor cell lines, growth inhibition (Non-Small Cell Lung Cancer); settings: HOP-62
[8] = test system: SN12C; test: panel of 60 human tumor cell lines, growth inhibition (Renal Cancer)
[9] = test system: HCT-15; test: panel of 60 human tumor cell lines, growth inhibition (Colon Cancer); settings: HCT-15
[10] = test system: MOLT-4; test: panel of 60 human tumor cell lines, growth inhibition (Leukemia); settings: MOLT-4
[11] = test system: SK-MEL-5; test: panel of 60 human tumor cell lines, growth inhibition (Melanoma); settings: 8K-MEL-5
[12] = test system: NCI-H460; test: panel of 60 human tumor cell lines, growth inhibition (Non-Small Cell Lung Cancer); settings: NCI-H460
[13] = test system: SK-OV-3; test: panel of 60 human tumor cell lines, growth inhibition (Ovarian Cancer); settings: SK-OV-3
[14] = test system: SK-MEL-2; test: panel of 60 human tumor cell lines, growth inhibition (Melanoma); settings: SK-MEL-2
[15] = test system: HCC-2998; test: panel of 60 human tumor cell lines, growth inhibition (Colon Cancer); settings: HCC-2998
[16] = test system: HOP-92; test: panel of 60 human tumor cell lines, growth inhibition (Non-Small Cell Lung Cancer); settings: HOP-92
[17] = test system: LOX IMVI; test: panel of 60 human tumor cell lines, growth inhibition (Melanoma)
[18] = test system: MCF7; test: panel of 60 human tumor cell lines, growth inhibition (Breast Cancer); settings: MCF7
[19] = test system: MDA-MB-231/ATCC; test: as above; settings: MDA-MB-231/ATCC

C=C1C(=O)O[C@H]2[C@H]1CC/C(COC(=O)NCCO)=C\CC[C@@]1(C)O[C@@H]21 [JVM 2-50]
Percent Growth ([1]; Log10 Concentration −4.0): −37% | Percent Growth ([1]; Log10 Concentration −5.0): 67% | Percent Growth ([1]; Log10 Concentration −6.0): 91% | Percent Growth ([1]; Log10 Concentration −7.0): 96% | Percent Growth ([1]; Log10 Concentration −8.0): 93% | GI50 ([1]; NCI five dose): 14.6 µM | TGI ([1]; NCI five dose): 4.43E−5 | Percent Growth ([2]; Log10 Concentration −4.0): −65% | Percent Growth ([2]; Log10 Concentration −5.0): 48% | Percent Growth ([2]; Log10 Concentration −6.0): 87% | Percent Growth ([2]; Log10 Concentration −7.0): 91% | Percent Growth ([2]; Log10 Concentration −8.0): 89% | GI50 ([2]; NCI five dose): 8.99 µM | TGI ([2]; NCI five dose): 2.67E−5 | Percent Growth ([3]; Log10 Concentration −4.0): −92% | Percent Growth ([3]; Log10 Concentration −5.0): 60% | Percent Growth ([3]; Log10 Concentration −6.0): 107% | Percent Growth ([3]; Log10 Concentration −7.0): 106% | Percent Growth ([3]; Log10 Concentration −8.0): 108% | GI50 ([3]; NCI five dose): 11.6 µM | TGI ([3]; NCI five dose): 2.47E−5 | Percent Growth ([4]; Log10 Concentration −4.0): −48% | Percent Growth ([4]; Log10 Concentration −5.0): 9% | Percent Growth ([4]; Log10 Concentration −6.0): 111% | Percent Growth ([4]; Log10 Concentration −7.0): 109% | Percent Growth ([4]; Log10 Concentration −8.0): 106% | GI50 ([4]; NCI five dose): 3.99 µM | CC50 ([4]; read-out: LC50, NCI five dose): > 100 µM | Percent Growth ([5]; Log10 Concentration −4.0): −68% | Percent Growth ([5]; Log10 Concentration −5.0): 20% | Percent Growth ([5]; Log10 Concentration −6.0): 98% | Percent Growth ([5]; Log10 Concentration −7.0): 93% | Percent Growth ([5]; Log10 Concentration −8.0): 91% | GI50 ([5]; NCI five dose): 4.14 µM | TGI ([5]; NCI five dose): 1.69E−5 | Percent Growth ([6]; Log10 Concentration −4.0): −44% | Percent Growth ([6]; Log10 Concentration −5.0): 1% | Percent Growth ([6]; Log10 Concentration −6.0): 83% | Percent Growth ([6]; Log10 Concentration −7.0): 102% | Percent Growth ([6]; Log10 Concentration −8.0): 98% | GI50 ([6]; NCI five dose): 2.52 µM | TGI ([6]; NCI five dose): 1.03E−5 | Percent Growth ([7]; Log10 Concentration −4.0): 9% | Percent Growth ([7]; Log10 Concentration −5.0): 88% | Percent Growth ([7]; Log10 Concentration −6.0): 92% | Percent Growth ([7]; Log10 Concentration −7.0): 90% | Percent Growth ([7]; Log10 Concentration −8.0): 88% | GI50 ([7]; NCI five dose): 30.4 µM | TGI ([7]; NCI five dose): >1.00E−4 | Percent Growth ([8]; Log10 Concentration −4.0): −12% | Percent Growth ([8]; Log10 Concentration −5.0): 73% | Percent Growth ([8]; Log10 Concentration −6.0): 31% | Percent Growth ([8]; Log10 Concentration −7.0): 91% | Percent Growth ([8]; Log10 Concentration −8.0): 94% | GI50 ([8]; NCI five dose): 18.6 µM | TGI ([8]; NCI five dose): 7.22E−5 | Percent Growth ([9]; Log10 Concentration −4.0): −71% | Percent Growth ([9]; Log10 Concentration −5.0): 16% | Percent Growth ([9]; Log10 Concentration −6.0): 94% | Percent Growth ([9]; Log10 Concentration −7.0): 95% | Percent Growth ([9]; Log10 Concentration −8.0): 93% | GI50 ([9]; NCI five dose): 3.7 µM | TGI ([9]; NCI five dose): 1.54E−5 | Percent Growth ([10]; Log10 Concentration −4.0): −39% | Percent Growth ([10]; Log10 Concentration −5.0): 43% | Percent Growth ([10]; Log10 Concentration −6.0): 103% | Percent Growth ([10]; Log10 Concentration −7.0): 114% | Percent Growth ([10]; Log10 Concentration −8.0): 106% | GI50 ([10]; NCI five dose): 7.65 µM | Percent Growth ([11]; Log10 Concentration −4.0): −34% | Percent Growth ([11]; Log10 Concentration −5.0): 84% | Percent Growth ([11]; Log10 Concentration −6.0): 100% | Percent Growth ([11]; Log10 Concentration −7.0): 100% | Percent Growth ([11]; Log10 Concentration −8.0): 102% | GI50 ([11]; NCI five dose): 19.5 µM | TGI ([11]; NCI five dose): 5.15E−5 | Percent Growth ([12]; Log10 Concentration −4.0): 8% | Percent Growth ([12]; Log10 Concentration −5.0): 98% | Percent Growth ([12]; Log10 Concentration −6.0): 98% | Percent Growth ([12]; Log10 Concentration −7.0): 100% | Percent Growth ([12]; Log10 Concentration −8.0): 100% | GI50 ([12]; NCI five dose): 34 µM | TGI ([12]; NCI five dose): >1.00E−4 | Percent Growth ([13]; Log10 Concentration −4.0): 23% | Percent Growth ([13]; Log10 Concentration −5.0): 106% | Percent Growth ([13]; Log10 Concentration −6.0): 103% | Percent Growth ([13]; Log10 Concentration −7.0): 103% | Percent Growth ([13]; Log10 Concentration −8.0): 92% | GI50 ([13]; NCI five dose): 47 µM | TGI ([13]; NCI five dose): >1.00E−4 | Percent Growth ([14]; Log10 Concentration −4.0): −54% | Percent Growth ([14]; Log10 Concentration −5.0): 83% | Percent Growth ([14]; Log10 Concentration −6.0): 115% | Percent Growth ([14]; Log10 Concentration −7.0): 116% | Percent Growth ([14]; Log10 Concentration −8.0): 106% | GI50 ([14]; NCI five dose): 18.5 µM | TGI ([14]; NCI five dose): 4.18E−5 | Percent Growth ([15]; Log10 Concentration −4.0): −70% | Percent Growth ([15]; Log10 Concentration −5.0): 105% | Percent Growth ([15]; Log10 Concentration −6.0): 136% | Percent Growth ([15]; Log10 Concentration −7.0): 106% | Percent Growth ([15]; Log10 Concentration −8.0): 98% | GI50 ([15]; NCI five dose): 20.6 µM | TGI ([15]; NCI five dose): 3.99E−5 | Percent Growth ([16]; Log10 Concentration −4.0): −88% | Percent Growth ([16]; Log10 Concentration −5.0): 13% | Percent Growth ([16]; Log10 Concentration −6.0): 94% | Percent Growth ([16]; Log10 Concentration −7.0): 86% | Percent Growth ([16]; Log10 Concentration −8.0): 90% | GI50 ([16]; NCI five dose): 3.49 µM | TGI ([16]; NCI five dose): 1.35E−5 | Percent Growth ([17]; Log10 Concentration −4.0): −88% | Percent Growth ([17]; Log10 Concentration −5.0): 67% | Percent Growth ([17]; Log10 Concentration −6.0): 98% | Percent Growth ([17]; Log10 Concentration −7.0): 102% | Percent Growth ([17]; Log10 Concentration −8.0): 100% | GI50 ([17]; NCI five dose): 12.9 µM | TGI ([17]; NCI five dose): 2.72E−5 | Percent Growth ([18]; Log10 Concentration −4.0): −59% | Percent Growth ([18]; Log10 Concentration −5.0): 16% | Percent Growth ([18]; Log10 Concentration −6.0): 84% | Percent Growth ([18]; Log10 Concentration −7.0): 89% | Percent Growth ([18]; Log10 Concentration −8.0): 87% | GI50 ([18]; NCI five dose): 3.16 µM | TGI ([18]; NCI five dose): 1.61E−5 | Percent Growth ([19]; Log10 Concentration −4.0): −66% | Percent Growth ([19]; Log10 Concentration −5.0): 63% | Percent Growth ([19]; Log10 Concentration −6.0): 99% | Percent Growth ([19]; Log10 Concentration −7.0): 91% | Percent Growth ([19]; Log10 Concentration −8.0): 100% | GI50 ([19]; NCI five dose): 12.7 µM | TGI ([19]; NCI five dose): 1.10E−5
